{
  "source": "paper PMC4065032",
  "about": "“Biochemical Characterization of Quinolinic Acid Phosphoribosyltransferase from Mycobacterium tuberculosis H37Rv and Inhibition of Its Activity by Pyrazinamide” (PLoS ONE, 2014)",
  "molecules": {"B1": {"name": "Quinolinic acid phosphoribosyltransferase from Mycobacterium tuberculosis H37Rv (recombinant, C-terminal 6xHis) (enzyme)", "chain": "MGLSDWELAAARAAIARGLDEDLRYGPDVTTLATVPASATTTASLVTREAGVVAGLDVALLTLNEVLGTNGYRVLDRVEDGARVPPGEALMTLEAQTRGLLTAERTMLNLVGHLSGIATATAAWVDAVRGTKAKIRDTRKTLPGLRALQKYAVRTGGGVNHRLGLGDAALIKDNHVAAAGSVVDALRAVRNAAPDLPCEVEVDSLEQLDAVLPEKPELILLDNFAVWQTQTAVQRRDSRAPTVMLESSGGLSLQTAATYAETGVDYLAVGALTHSVRVLDIGLDM", "notes": "also called MtQAPRTase; QAPRTase; not shown: His6, C-terminal, kept"}},
  "key": {"hQAPRTase": {"tested_on": "hQAPRTase", "conditions": "cited from earlier work"}, "SEC": {"biological_target": "the molecule itself", "experiment": "SEC"}},
  "data": [
    {"molecule": "O=C(O)c1cccnc1C(=O)O", "note": "[QA, 2,3-pyridinedicarboxylic acid]", "values": [
      {"measurement": "Km", "setting": "hQAPRTase", "result": 22, "unit": "µM"},
      {"measurement": "kcat", "setting": "hQAPRTase; recalculated from Vmax", "result": 0.04, "unit": "s⁻¹"}
    ]},
    {"molecule": "B1", "values": [
      {"measurement": "stoichiometry N", "setting": "SEC", "result": 2}
    ]}
  ]
}
